Assay results from the supplement of paper PMC10307832.

How the values were obtained:
Experiment in all cases: relative viability (nuclei count vs DMSO), 5 days (fraction); higher = more cells survive
RU-SKI 43 + OSI-027 = compound: CC[C@@H](C)CNCC(=O)N1CCC2=C([C@@H]1COC3=CC=CC(=C3)C)C=CS2 [RU-SKI 43] + COc1cccc2cc(-c3nc([C@H]4CC[C@H](C(=O)O)CC4)n4ncnc(N)c34)[nH]c12 [OSI-027] (partner 0.5 µM)
Method in brief: (§1)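 Relative viability is defined as nuclei in treated wells over nuclei in vehicle wells. Duplicate plates were run and medians reported. Lung cancer cell lines in 1536-well plates were dosed by pin tool one day after seeding, with one drug or with a fixed anchor-drug dose plus five library-drug doses (not always all listed) in √10 steps, and nuclei were counted after 5 days.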

RU-SKI 43 + Decitabine = compound: CC[C@@H](C)CNCC(=O)N1CCC2=C([C@@H]1COC3=CC=CC(=C3)C)C=CS2 [RU-SKI 43] + Nc1ncn([C@H]2C[C@H](O)[C@@H](CO)O2)c(=O)n1 [Decitabine] (partner 2 µM)
Method in brief: as §1

Irinotecan + Navitoclax = compound: CCc1c2c(nc3ccc(OC(=O)N4CCC(N5CCCCC5)CC4)cc13)-c1cc3c(c(=O)n1C2)COC(=O)[C@]3(O)CC [Irinotecan] + CC1(C)CCC(c2ccc(Cl)cc2)=C(CN2CCN(c3ccc(C(=O)NS(=O)(=O)c4ccc(N[C@H](CCN5CCOCC5)CSc5ccccc5)c(S(=O)(=O)C(F)(F)F)c4)cc3)CC2)C1 [Navitoclax] (partner 0.5 µM)
Method in brief: as §1

Irinotecan + AZD7762 = compound: CCc1c2c(nc3ccc(OC(=O)N4CCC(N5CCCCC5)CC4)cc13)-c1cc3c(c(=O)n1C2)COC(=O)[C@]3(O)CC [Irinotecan] + NC(=O)Nc1cc(-c2cccc(F)c2)sc1C(=O)N[C@H]1CCCNC1 [AZD7762] (partner 0.2 µM)
Method in brief: as §1

| Cell Line | relative viability (RU-SKI 43 + OSI-027; first compound 0.1 µM) | relative viability (RU-SKI 43 + OSI-027; first compound 0.3162 µM) | relative viability (RU-SKI 43 + OSI-027; first compound 1 µM) | relative viability (RU-SKI 43 + OSI-027; first compound 3.162 µM) | relative viability (RU-SKI 43 + OSI-027; first compound 10 µM) | relative viability (RU-SKI 43 + Decitabine; first compound 0.1 µM) | relative viability (RU-SKI 43 + Decitabine; first compound 0.3162 µM) | relative viability (RU-SKI 43 + Decitabine; first compound 1 µM) | relative viability (RU-SKI 43 + Decitabine; first compound 3.162 µM) | relative viability (RU-SKI 43 + Decitabine; first compound 10 µM) | relative viability (Irinotecan + Navitoclax; first compound 0.6325 µM) | relative viability (Irinotecan + Navitoclax; first compound 2 µM) | relative viability (Irinotecan + Navitoclax; first compound 6.325 µM) | relative viability (Irinotecan + Navitoclax; first compound 20 µM) | relative viability (Irinotecan + AZD7762; first compound 0.6325 µM) | relative viability (Irinotecan + AZD7762; first compound 2 µM) | relative viability (Irinotecan + AZD7762; first compound 6.325 µM) | relative viability (Irinotecan + AZD7762; first compound 20 µM) |
| --- | --- | --- | --- | --- | --- | --- | --- | --- | --- | --- | --- | --- | --- | --- | --- | --- | --- | --- |
| NCI-H1666 | 0.897 | 0.87 | 0.85 | 0.858 | 0.752 | 0.739 | 0.794 | 0.721 | 0.643 | 0.665 | 0.695 | 0.643 | 0.401 | 0.326 | 0.815 | 0.687 | 0.552 | 0.503 |
| HARA | 0.558 | 0.492 | 0.578 | 0.594 | 0.295 | 0.497 | 0.682 | 0.566 | 0.46 | 0.47 | 0.658 | 0.106 | 0.123 | 0.111 | 0.2 | 0.278 | 0.154 | 0.255 |
| NCI-H661 | 0.721 | 0.808 | 0.724 | 0.694 | 0.68 | 0.483 | 0.603 | 0.588 | 0.557 | 0.465 |  |  |  |  |  |  |  |  |
| NCI-H2087 | 0.666 | 0.56 | 0.705 | 0.563 | 0.516 | 0.324 | 0.283 | 0.281 | 0.247 | 0.238 | 0.468 | 0.26 | 0.184 | 0.218 | 0.586 | 0.387 | 0.242 | 0.226 |
| LC-2-ad | 0.733 | 0.821 | 1.04 | 0.979 | 0.789 | 0.866 | 0.766 | 0.81 | 0.849 | 0.728 | 0.287 | 0.282 | 0.169 | 0.167 | 0.446 | 0.567 | 0.272 | 0.17 |
| NCI-H2405 | 0.618 | 0.56 | 0.615 | 0.684 | 0.569 | 0.704 | 0.778 | 0.681 | 0.808 | 0.688 |  | 0.697 | 0.212 | 0.091 |  | 0.765 | 0.298 | 0.197 |
| HCC-44 | 0.511 |  | 0.777 | 0.479 | 0.611 | 0.98 | 0.911 | 0.922 | 0.977 | 0.953 | 0.904 | 0.232 | 0.231 | 0.27 | 0.909 | 1.03 | 0.798 | 0.486 |
| NCI-H3122 | 1.02 | 1.23 | 1.31 | 1.01 | 0.96 | 0.365 | 0.478 | 0.469 | 0.413 | 0.391 | 0.723 | 0.235 | 0.226 | 0.209 | 0.941 | 0.34 | 0.145 | 0.139 |
| LU99A | 0.298 | 0.282 | 0.314 | 0.309 | 0.317 | 0.746 | 1.1 | 1.05 | 0.91 | 0.711 | 0.188 | 0.231 | 0.195 | 0.242 | 0.152 | 0.13 | 0.106 | 0.132 |
| ABC-1 | 0.541 | 0.385 | 0.554 | 0.52 | 0.473 | 1.01 | 1.14 | 1.2 | 1.07 | 1.17 |  |  |  |  |  | 0.718 | 0.308 | 0.422 |
| H3255 | 0.543 | 0.598 | 0.582 | 0.607 | 0.584 | 0.564 | 0.697 | 0.683 | 0.619 | 0.579 | 0.352 | 0.279 | 0.158 | 0.227 | 0.713 | 0.611 | 0.354 | 0.388 |
| HCC-827 | 0.73 | 0.94 | 0.889 | 0.783 | 0.736 | 0.336 | 0.269 | 0.395 | 0.288 | 0.315 | 0.591 | 0.278 | 0.244 | 0.237 | 0.201 | 0.193 | 0.203 | 0.182 |
| NCI-H1734 | 0.498 | 0.638 | 0.603 | 0.671 | 0.534 | 0.522 | 0.544 | 0.598 | 0.487 | 0.473 | 0.618 | 0.376 | 0.156 | 0.188 |  | 0.399 | 0.185 | 0.139 |
| EBC-1 |  |  |  |  |  |  |  |  |  |  | 0.304 | 0.406 | 0.378 | 0.133 |  |  |  |  |
| NCI-H838 | 0.431 | 0.264 | 0.355 | 0.417 | 0.38 | 0.416 | 0.489 | 0.469 | 0.429 | 0.444 | 1.14 | 0.754 | 0.4 | 0.266 | 0.887 | 0.787 | 0.749 | 0.645 |
| NCI-H1437 | 0.986 | 0.855 | 0.865 | 0.943 | 0.862 | 0.591 | 0.582 | 0.601 | 0.56 | 0.557 | 0.75 | 0.575 | 0.308 | 0.214 | 0.891 | 0.557 | 0.261 | 0.174 |
| NCI-H1915 | 0.641 | 0.706 | 0.703 | 0.686 | 0.614 | 0.272 | 0.257 | 0.285 | 0.25 | 0.255 | 0.318 | 0.18 | 0.151 | 0.115 | 0.387 | 0.346 | 0.165 | 0.127 |
| SK-MES-1 | 0.491 | 0.65 | 0.737 | 0.791 | 0.569 | 0.313 | 0.385 | 0.391 | 0.403 | 0.389 | 1.29 | 1.22 | 0.226 | 0.208 |  |  |  |  |
| NCI-H2342 | 0.541 | 0.594 | 0.622 | 0.641 | 0.62 | 0.701 |  | 0.724 | 0.797 | 0.769 |  |  |  |  | 0.516 | 0.514 | 0.489 | 0.462 |
